Assay results taken from patent US20230092163A1, “COMPOUNDS AND COMPOSITIONS FOR TREATING CONDITIONS ASSOCIATED WITH STING ACTIVITY” (IFM Due, Inc., priority 2019, published 2023).

What follows are compounds tested against STING (Homo sapiens, UniProt Q86WV6, G230A/H232R/R293Q/R71H) (assay: STING reporter assay: THP1-Dual KO-IFNAR2 cells stimulated with 2′3′cGAMP, luciferase reporter activity). Details: 15 μM 2′3′cGAMP, 24h, class symbols.
Type: cell-based
Procedure, shortened: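 THP1-Dual KO-IFNAR2 cells (2×10E6 cells/mL) treated with compounds at 0.0017-100 μM, then stimulated with 2′3′cGAMP (15 μM final) delivered by Lipofectamine 2000; 24 h at 37° C. Supernatant luciferase read by QUANTI-Luc Plus luminescence; EC50 from dose-response.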

Chain of STING (Q86WV6 whole entry R71H/G230A/H232R/R293Q): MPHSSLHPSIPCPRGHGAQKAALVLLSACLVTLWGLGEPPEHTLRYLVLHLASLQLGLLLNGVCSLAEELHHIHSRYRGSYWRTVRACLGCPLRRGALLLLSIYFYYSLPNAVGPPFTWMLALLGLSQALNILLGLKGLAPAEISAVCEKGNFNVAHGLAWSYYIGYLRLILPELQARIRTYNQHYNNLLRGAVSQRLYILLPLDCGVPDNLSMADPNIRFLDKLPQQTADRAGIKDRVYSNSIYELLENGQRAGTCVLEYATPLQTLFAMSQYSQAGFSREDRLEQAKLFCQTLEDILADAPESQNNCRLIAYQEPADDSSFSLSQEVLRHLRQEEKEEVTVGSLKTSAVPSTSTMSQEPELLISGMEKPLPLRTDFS

Structure (SMILES) | EC50 [µM]
Fc1cc(C(F)(F)F)cc2nc(Nc3ccc4cc[nH]c4c3)ccc12 [Compound 554] | 1 to 5
O=C(Nc1cccc(C(F)(F)F)c1)Nc1ccc2cc[nH]c2c1 [Compound 272] | 0.2 to 1
O=C(NCCc1c(F)cccc1Cl)Nc1ccc2cc[nH]c2c1 [Compound 209] | 1 to 5
FC(F)(F)c1cccc2nc(Nc3ccc4cc[nH]c4c3)ccc12 [Compound 574, N-(1H-indol-6-yl)-5-(trifluoromethyl)quinolin-2-amine] | 0.2 to 1
N#Cc1cc(NC(=O)Nc2ccc(C(F)(F)F)cc2)cc2[nH]ccc12 [Compound 245] | 0.04 to 0.2
CNS(=O)(=O)c1c[nH]c2cc(NC(=O)Nc3ccc(C(F)(F)F)cc3)ccc12 [Compound 508] | 5 to 100
FC(F)(F)COc1cccc(Nc2ccc3cc[nH]c3c2)n1 [Compound 396, N-(6-(2,2,2-trifluoroethoxy)pyridin-2-yl)-1H-indol-6-amine] | 5 to 100
Clc1ccc(Nc2ccc3cc[nH]c3c2)nc1Nc1ccc2cc[nH]c2c1 [Compound 581, 3-chloro-N2,N6-bis(1H-indol-6-yl)pyridine-2,6-diamine] | 5 to 100
O=C(Nc1ccc(C(F)(F)F)cc1)Nc1cnc2cc[nH]c2c1 [Compound 111] | 0.2 to 1
O=C(Nc1cnc(N2CC(F)(F)C2)c(F)c1)Nc1ccc2c(F)c[nH]c2c1 [Compound 531] | 0.2 to 1
O=C(Nc1ccc(C(F)(F)F)cc1)Nc1cc(Cl)c2cc[nH]c2c1 [Compound 251] | 0.04 to 0.2
CCCCc1cccc(NC(=O)Nc2ccc3cc[nH]c3c2)c1 [Compound 270] | 0.04 to 0.2
O=C(Nc1cccc(C(F)(F)F)c1)Nc1cc(CCO)c2cc[nH]c2c1 [Compound 509, 1-(4-(2-hydroxyethyl)-1H-indol-6-yl)-3-(3-(trifluoromethyl)phenyl)urea] | 1 to 5
Cc1cc(NC(=O)Nc2cc(Cl)c3cc[nH]c3c2)cnc1N1CCC(F)(F)CC1 [Compound 500] | 0.2 to 1
O=C(Nc1cc(Cl)cc(C(F)(F)F)c1)Nc1ccc2cc[nH]c2c1 [Compound 254] | 0.2 to 1
O=C(Nc1ccc(C(F)(F)F)cc1)Nc1cc(Cl)c2c(F)c[nH]c2c1 [Compound 518] | 0.04 to 0.2
O=C(Nc1ccc(C(F)(F)F)cc1)Nc1cc2[nH]ccc2cc1F [Compound 262] | 5 to 100
O=C(Nc1cnc(N2CC(F)(F)C2)c(F)c1)Nc1cc(Cl)c2cc[nH]c2c1 [Compound 516] | 0.2 to 1

Now from value to compound:

EC50 [µM] | Structure (SMILES)
5 to 100 | CC(C)(C)c1ccc(Nc2ccc3cc[nH]c3c2)nc1 [Compound 426, N-(5-(tert-butyl)pyridin-2-yl)-1H-indol-6-amine]
0.2 to 1 | O=C(Nc1ccc(C(F)(F)F)cc1)Nc1ccc2c(Br)c[nH]c2c1 [Compound 196]
5 to 100 | CCCCC1CCC(NC(=O)Nc2ccc3cc(Cl)[nH]c3c2)CC1 (stereo not drawn) [Compound 260]
5 to 100 | O=C(Nc1ccc(C(F)(F)F)cc1)Nc1cc2[nH]ccc2cn1 [Compound 110]
1 to 5 | O=c1c(Nc2ccc(C(F)(F)F)cc2)c(Nc2ccc3[nH]ccc3c2)c1=O [Compound 619]
1 to 5 | COc1ccc2c(Cl)cc(Nc3ccc4cc[nH]c4c3)nc2c1 [Compound 588, 4-chloro-N-(1H-indol-6-yl)-7-methoxyquinolin-2-amine]
5 to 100 | CC(C)c1ccc(-c2nnc(NC(=O)Nc3ccc4[nH]ccc4c3)s2)cc1 [Compound 279]
5 to 100 | FC(F)(F)Cc1ccc(Nc2ccc3cc[nH]c3c2)nc1 [Compound 408, N-(5-(2,2,2-trifluoroethyl)pyridin-2-yl)-1H-indol-6-amine]
5 to 100 | CC(C)(C)c1cc(NC(=O)Nc2ccc3cc[nH]c3c2)on1 [Compound 217]
1 to 5 | c1ccc(-c2ccnc(Nc3ccc4cc[nH]c4c3)c2)cc1 [Compound 401, N-(4-phenylpyridin-2-yl)-1H-indol-6-amine]
0.2 to 1 | O=C(Nc1ccc(C(F)(F)F)cc1)Nc1ccc2[nH]cc(NC(=O)Nc3ccc(C(F)(F)F)cc3)c2c1 [Compound 371]
5 to 100 | O=C(Nc1ccc2[nH]ccc2c1)Nc1cc2cccc(C(F)(F)F)n2n1 [Compound 309]
1 to 5 | O=C(NCc1ccc(OCC(F)(F)F)nc1)Nc1ccc2cc[nH]c2c1 [Compound 176]
0.2 to 1 | O=C(Nc1cc(Cl)c2cc[nH]c2c1)NC1CCC2(CCCCC2)CC1 [Compound 542]
1 to 5 | O=C(Nc1ccc(C(F)(F)F)cc1)Nc1cc(-c2cn[nH]c2)c2cc[nH]c2c1 [Compound 167]
5 to 100 | CCOc1ccc(Nc2ccc3cc[nH]c3c2)nc1C [Compound 594, N-(5-ethoxy-6-methylpyridin-2-yl)-1H-indol-6-amine]
1 to 5 | O=c1c(Nc2ccc(C(F)(F)F)cc2)c(Nc2ccc3cc[nH]c3c2)c1=O [Compound 620]
5 to 100 | CCC(NC(=O)Nc1ccc2[nH]ccc2c1)c1cccc(C(F)(F)F)c1 (stereo not drawn) [Compound 313]

Same assay, conditions: 15 μM 2′3′cGAMP, 24h, numeric bounds

Structure (SMILES) | EC50 [µM]
O=C(Nc1ccc2nc(C(F)(F)F)ccc2c1)Nc1ccc2[nH]ccc2c1 [Compound 287] | > 30
O=C(NCCN1CCC(Cc2ccccc2)CC1)Nc1ccc2[nH]ccc2c1 [Compound 294] | > 30
O=C(Nc1ccc2cc[nH]c2c1)Nc1ccccc1F [Compound 230] | > 30
O=C(NCC1CCC1)Nc1ccc2[nH]ccc2c1 [Compound 331] | > 30
CC(C)c1ccnc(Nc2ccc3cc[nH]c3c2)c1 [Compound 393, N-(4-isopropylpyridin-2-yl)-1H-indol-6-amine] | > 30
c1cc(Nc2ccc3cc[nH]c3c2)nc(C2CC2)c1 [Compound 433, N-(6-cyclopropylpyridin-2-yl)-1H-indol-6-amine] | > 30
CCc1ccccc1NC(=O)Nc1ccc2[nH]ccc2c1 [Compound 363, 1-(2-ethylphenyl)-3-(1H-indol-5-yl)urea] | > 30
Cc1cc(NC(=O)Nc2ccc(C(F)(F)F)cc2)cc2c1ccn2-c1cn[nH]c1 [Compound 156] | > 30
CCCCCCCCc1ccc(NC(=O)Nc2ccc3[nH]ccc3c2)cc1 [Compound 352] | > 30
O=C(NCCC1CC1)Nc1ccc2[nH]ccc2c1 [Compound 330] | > 30
CCn1cc(CNC(=O)Nc2ccc3[nH]ccc3c2)cn1 [Compound 301] | > 30
CCCCC1CCC(NC(=O)Nc2ccc3[nH]ccc3c2)CC1 (stereo not drawn) [Compound 379] | > 5
FC(F)Oc1ccc(Nc2ccc3cc[nH]c3c2)nc1 [Compound 413, N-(5-(difluoromethoxy)pyridin-2-yl)-1H-indol-6-amine] | > 30
CCNc1cccc(Nc2ccc3cc[nH]c3c2)n1 [Compound 398, N2-ethyl-N6-(1H-indol-6-yl)pyridine-2,6-diamine] | > 30
COC(=O)c1ccc(Nc2ccc3cc[nH]c3c2)nc1OC [Compound 597] | > 30
O=C(NCCCc1cncc(C(F)(F)F)c1)Nc1ccc2[nH]ccc2c1 [Compound 298] | > 30
O=C(NCc1ccc(F)c(F)c1)Nc1ccc2[nH]ccc2c1 [Compound 336] | > 30
CCCCCNC(=O)Nc1ccc2[nH]ccc2c1 [Compound 328] | > 30
COC1CN(c2ncc(NC(=O)Nc3cc(Cl)c4cc[nH]c4c3)cc2C)C1 [Compound 498] | > 30

Next, values leading:

EC50 [µM] | Structure (SMILES)
> 30 | O=C(Nc1cc(F)c(N2CCC(F)(F)CC2)c(F)c1)Nc1ccc2[nH]ccc2c1 [Compound 293]
> 30 | Cc1cc(NC(=O)Nc2ccc3[nH]ccc3c2)ccc1C#N [Compound 360]
> 30 | c1cnc2c(Nc3ccc4cc[nH]c4c3)nccc2c1 [Compound 407, N-(1H-indol-6-yl)-1,7-naphthyridin-8-amine]
> 30 | O=C(Nc1ccc2c(c1)CCC2)Nc1ccc2[nH]ccc2c1 [Compound 359]
> 30 | O=C(NCc1ccc(Cl)c(C(F)(F)F)c1)Nc1ccc2[nH]ccc2c1 [Compound 320]
> 30 | O=C(Nc1ccc2cc[nH]c2c1)Nc1ccon1 [Compound 190]
> 30 | CC(F)(F)c1ccnc(Nc2ccc3cc[nH]c3c2)c1 [Compound 416, N-(4-(1,1-difluoroethyl)pyridin-2-yl)-1H-indol-6-amine]
> 30 | Clc1ccc2ccc(Nc3ccc4cc[nH]c4c3)nc2c1Cl [Compound 425, 7,8-dichloro-N-(1H-indol-6-yl)quinolin-2-amine]
> 30 | N#Cc1c[nH]c2cc(NC(=O)Nc3cnc(N4CC(F)(F)C4)c(F)c3)ccc12 [Compound 530]
> 30 | CC(C)(C)OC(=O)N1CCc2nc(Nc3ccc4cc[nH]c4c3)ncc2C1 [Compound 419, tert-butyl 2-((1H-indol-6-yl)amino)-7,8-dihydropyrido[4,3-d]pyrimidine-6(5H)-carboxylate]
> 30 | Cc1ccccc1NC(=O)Nc1ccc2cc[nH]c2c1 [Compound 231]
> 30 | Cn1cc(-c2cc(NC(=O)Nc3ccc(C(F)(F)F)cc3)cc3[nH]ccc23)cn1 [Compound 197]
> 30 | CCS(=O)(=O)c1ccc(CNC(=O)Nc2ccc3[nH]ccc3c2)cn1 [Compound 300]
> 30 | O=C(Nc1cccc(S(F)(F)(F)(F)F)c1)Nc1ccc2[nH]ccc2c1 [Compound 346]
> 30 | O=C(Nc1ccc2[nH]ccc2c1)Nc1cc2ccc(C(F)(F)F)cn2n1 [Compound 299]
> 30 | O=C(NCc1cnccn1)Nc1ccc2[nH]ccc2c1 [Compound 333]
> 30 | CC(O)c1ccnc(Nc2ccc3cc[nH]c3c2)c1 (stereo not drawn) [Compound 395, 1-(2-((1H-indol-6-yl)amino)pyridin-4-yl)ethanol]
> 30 | c1cc(Nc2ccc3cc[nH]c3c2)nc(N2CCCC2)c1 [Compound 397, N-(6-(pyrrolidin-1-yl)pyridin-2-yl)-1H-indol-6-amine]
> 1.11 | Cc1cc(NC(=O)Nc2ccc3c(F)c[nH]c3c2)cnc1N1CCC(F)(F)CC1 [Compound 499]
> 30 | Cn1cc(-c2c[nH]c3cc(NC(=O)Nc4ccc(C(F)(F)F)cc4)ccc23)cn1 [Compound 545]
